In brackets after ≈: the same amount, converted by molar mass.
Biological target: T1, collagenase
T1 construct: gene colG
Assay: ninhydrin colorimetric gelatin hydrolysis
Format: biochemical
Conditions: gelatin substrate, Tris-HCl pH 7.5, 5 mM CaCl2, 1 µM ZnCl2, 37°C

**Q.** How did the IC50 turn out when `O=C(O)c1cc(O)c(O)c(O)c1` [compound 1, gallic acid] was run?
**A.** 108.88 ± 12.71 µg/mL (≈ 640 µM)

— publication PMC12629169, “Antiaging, Wound‐Healing Properties and Chemical Characterization of Crude Hydroalcoholic Extract and Fractions of Myrcia neoobscura” (Chemistry & Biodiversity, 2025)
